The test system of data set [1] is Bacillus subtilis ATCC 6633. In words: Minimum inhibitory concentration, Bacillus subtilis. In kind it is cell-based. The note with it: ATCC6633.
Data set [2] relates to Staphylococcus aureus ATCC 6538F. In words: Minimum inhibitory concentration, Staphylococcus aureus. The note with it: ATCC6538F. In kind it is cell-based.
The next data set relates to Escherichia coli NIHJ. In words: Minimum inhibitory concentration, Escherichia coli. In kind it is cell-based.
In data set [3] the test system is Klebsiella pnuemoniae ATCC 10031. Put plainly: Minimum inhibitory concentration, Klebsiella pnuemoniae. In kind it is cell-based. The following applies: ATCC10031.
A further data set concerns Salmonella typhi H901W. In words: Minimum inhibitory concentration, Salmonella typhi. In kind it is cell-based. The note with it: Salmonella enterica, read-out: Minimum inhibitory concentration.
The test system of data set [4] is Salmonella enteritidis 1891. Put plainly: Minimum inhibitory concentration, Salmonella enteritidis. In kind it is cell-based. The following applies: Salmonella enterica.
The subject of another data set is Shigella boydii IID 627. In words: Minimum inhibitory concentration, Shigella boydii. In kind it is cell-based. The following applies: IID627.
A further data set deals with Proteus mirabilis IMFOM9. Put plainly: Minimum inhibitory concentration, Proteus mirabilis. In kind it is cell-based.
The next data set has as its system Proteus vulgaris OXK US. In words: Minimum inhibitory concentration, Proteus vulgaris. In kind it is cell-based.
The test system of data set [5] is Pseudomonas aeruginosa NCTC 10490. In words: Minimum inhibitory concentration, Pseudomonas aeruginosa. In kind it is cell-based. The note with it: NCTC10490.
Another data set has as its system Proteus mirabilis. Put plainly: Antibacterial activity, plate disc method (diameter of inhibitory circle), Proteus mirabilis. The note with it: pH 8.0, plate disc method. On the set-up: unit not given here. In kind it is cell-based. The text has this: (§1) 3. The antibacterial activities to Proteus mirabilis and Salmonella gallinarum are as follows:
(§2) Peptone 1%, yeast extract 0.1%, agaragar 1%, pH 8.0, plate disc method,
(§3) the numerical values are the diameters of inhibitory circles.

Another data set deals with Salmonella gallinarum. In words: Antibacterial activity, plate disc method (diameter of inhibitory circle), Salmonella gallinarum. In kind it is cell-based. The note with it: pH 8.0, plate disc method.
From the text: as §1, §2, §3

Data set [6] is described as follows: Solubility / hygroscopicity of the Na salt (physicochemical properties). The note with it: for Solubility in methanol, ethanol, ethyl acetate, butyl acetate and other organic solvents: (n-)butanol (not named for compound C).

In brackets after ≈: the same amount, converted by molar mass.

Turning to `COC(=Cc1ccc(OS(=O)(=O)O)cc1)C(=O)OCC1=C(C(=O)O)N2C(=O)[C@](NC(=O)CCC[C@@H](N)C(=O)O)(OC)[C@H]2SC1` [Comp. a, reference compound], the MIC in [1] is 50 µg/mL (≈ 75.8 µM); in data set [2], > 100 µg/mL; against Escherichia coli NIHJ, 25 µg/mL (≈ 37.9 µM); in [3], 50 µg/mL (≈ 75.8 µM); with Salmonella typhi H901W, 25 µg/mL (≈ 37.9 µM); in [4], 25 µg/mL (≈ 37.9 µM). Also, the MIC was 25 µg/mL (≈ 37.9 µM) in the data set with Shigella boydii IID 627, 6.25 µg/mL (≈ 9.47 µM) against Proteus mirabilis IMFOM9, 1.56 µg/mL (≈ 2.36 µM) against Proteus vulgaris OXK US and > 100 µg/mL in data set [5].

With `COC(=Cc1ccc(O)cc1)C(=O)OCC1=C(C(=O)O)N2C(=O)[C@](NC(=O)CCC[C@@H](N)C(=O)O)(OC)[C@H]2SC1` [Comp. b, reference compound], the MIC in [1] was found to be 6.25 µg/mL (≈ 10.8 µM); in data set [2] it was 100 µg/mL (≈ 173 µM); against Escherichia coli NIHJ, 12.5 µg/mL (≈ 21.6 µM); in [3] it was 25 µg/mL (≈ 43.1 µM); in the data set on Salmonella typhi H901W it was 50 µg/mL (≈ 86.3 µM); in [4], 12.5 µg/mL (≈ 21.6 µM). The MIC with Shigella boydii IID 627 was 50 µg/mL (≈ 86.3 µM); with Proteus mirabilis IMFOM9, 6.25 µg/mL (≈ 10.8 µM); against Proteus vulgaris OXK US, 6.25 µg/mL (≈ 10.8 µM); in data set [5], > 100 µg/mL.

Take `CO[C@@]1(NC(=O)CCC[C@@H](N)C(=O)O)C(=O)N2C(C(=O)O)=C(COC(=O)/C=C/c3ccc(OS(=O)(=O)O)cc3)CS[C@@H]21` [Compound (A), 7β-(D-5-Amino-5-carboxyvaleramido)-7α-methoxy-3-(p-sulfooxycinnamoyloxymethyl)-Δ^3-cephem-4-carboxylic acid]: the “diameter of inhibitory circle” value was 22.3 in the data set with Proteus mirabilis (100 γ/ml), 28.7 in the data set with Proteus mirabilis (500 γ/ml), 17.0 in the data set on Salmonella gallinarum (100 γ/ml) and 21.5 with Salmonella gallinarum (500 γ/ml). Also, the MIC in [1] stood at 12.5 µg/mL (≈ 19.9 µM); in data set [2], 100 µg/mL (≈ 159 µM); in the data set on Escherichia coli NIHJ it was 6.25 µg/mL (≈ 9.93 µM); in data set [3], 25 µg/mL (≈ 39.7 µM); with Salmonella typhi H901W, 3.13 µg/mL (≈ 4.97 µM); in data set [4] it was 6.25 µg/mL (≈ 9.93 µM). Further, the MIC is 6.25 µg/mL (≈ 9.93 µM) with Shigella boydii IID 627, 0.78 µg/mL (≈ 1.24 µM) in the data set with Proteus mirabilis IMFOM9, 0.39 µg/mL (≈ 0.619 µM) in the data set with Proteus vulgaris OXK US and > 100 µg/mL in data set [5]. Besides, the “Solubility in methanol, ethanol, ethyl acetate, butyl acetate and other organic solvents” value (“Solubility in methanol, ethanol” for short) in data set [6] (ethyl acetate, butyl acetate) is given as “scarcely”. Besides, the Solubility in water entry in data set [6] is recorded as “Easily soluble”.

On to `CO[C@@]1(NC(=O)CCCC(=O)O)C(=O)N2C(C(=O)O)=C(COC(=O)/C=C/c3ccc(OS(=O)(=O)O)cc3)CS[C@@H]21` [Compound (B), 7β-(4-Carboxybutyramido)-7α-methoxy-3-(p-sulfooxycinnamoyloxymethyl)-Δ^3-cephem-4-carboxylic acid], for which the “diameter of inhibitory circle” value in the data set with Proteus mirabilis (100 γ/ml) is given as 17.6; in the data set on Proteus mirabilis (500 γ/ml) it was 27.2; with Salmonella gallinarum (100 γ/ml) it was 14.2; in the data set on Salmonella gallinarum (500 γ/ml), 18.3. Moreover, the MIC was 100 µg/mL (≈ 167 µM) in [1]; 100 µg/mL (≈ 167 µM) in data set [2]; 6.25 µg/mL (≈ 10.4 µM) in the data set with Escherichia coli NIHJ; 25 µg/mL (≈ 41.6 µM) in data set [3]; 50 µg/mL (≈ 83.3 µM) in the data set on Salmonella typhi H901W; 50 µg/mL (≈ 83.3 µM) in data set [4]. Further, the MIC was 25 µg/mL (≈ 41.6 µM) against Shigella boydii IID 627, 12.5 µg/mL (≈ 20.8 µM) with Proteus mirabilis IMFOM9, 6.25 µg/mL (≈ 10.4 µM) against Proteus vulgaris OXK US and > 100 µg/mL in [5]. In addition, the “Solubility in methanol, ethanol” value in [6] (ethyl acetate, butyl acetate) is on record as “scarcely soluble”. The Solubility in water entry in data set [6] is reported as “Easily soluble”.

On to `CO[C@@]1(NC(=O)CCC[C@@H](N)C(=O)O)C(=O)N2C(C(=O)O)=C(COC(=O)/C=C/c3ccc(O)cc3)CS[C@@H]21` [Compound (C), 7β-(D-5-amino-5-carboxyvaleramido)-3-(p-hydroxycinnamoyloxymethyl)-7α-methoxy-Δ^3-cephem-4-carboxylic acid], for which the “diameter of inhibitory circle” value was determined as 22.0 in the data set on Proteus mirabilis (100 γ/ml), 27.8 with Proteus mirabilis (500 γ/ml), 15.1 in the data set with Salmonella gallinarum (100 γ/ml) and 20.0 in the data set on Salmonella gallinarum (500 γ/ml). Besides, the MIC was determined as 3.13 µg/mL (≈ 5.7 µM) in data set [1]; 50 µg/mL (≈ 91 µM) in [2]; 3.13 µg/mL (≈ 5.7 µM) against Escherichia coli NIHJ; 3.13 µg/mL (≈ 5.7 µM) in [3]; 12.5 µg/mL (≈ 22.7 µM) with Salmonella typhi H901W; 1.56 µg/mL (≈ 2.84 µM) in [4]. The MIC in the data set with Shigella boydii IID 627 was 6.25 µg/mL (≈ 11.4 µM); against Proteus mirabilis IMFOM9, 0.78 µg/mL (≈ 1.42 µM); in the data set on Proteus vulgaris OXK US, 0.78 µg/mL (≈ 1.42 µM); in [5], > 100 µg/mL. Further, the “Solubility in methanol, ethanol” value in data set [6] (ethyl acetate, butyl acetate) is “scarcely soluble”. Further, the Solubility in water entry in [6] is on record as “Easily soluble”.

Turning to `CO[C@@]1(NC(=O)CCCC(=O)O)C(=O)N2C(C(=O)O)=C(COC(=O)/C=C/c3ccc(O)cc3)CS[C@@H]21` [Compound (D), 7β-(4-carboxybutyramido)-3-(p-hydroxycinnamoyloxymethyl)-7α-methoxy-Δ^3-cephem-4-carboxylic acid], the “diameter of inhibitory circle” value in the data set with Proteus mirabilis (100 γ/ml) was found to be 18.0; in the data set on Proteus mirabilis (500 γ/ml), 27.7; in the data set on Salmonella gallinarum (100 γ/ml) it was 11.5; with Salmonella gallinarum (500 γ/ml) it was 16.2. Moreover, the MIC in [1] was determined as 100 µg/mL (≈ 192 µM); in [2] it was 50 µg/mL (≈ 96.1 µM); against Escherichia coli NIHJ it was 6.25 µg/mL (≈ 12 µM); in data set [3], 12.5 µg/mL (≈ 24 µM); with Salmonella typhi H901W it was 25 µg/mL (≈ 48 µM); in data set [4] it was 25 µg/mL (≈ 48 µM). The MIC in the data set with Shigella boydii IID 627 is 12.5 µg/mL (≈ 24 µM); against Proteus mirabilis IMFOM9 it was 6.25 µg/mL (≈ 12 µM); in the data set on Proteus vulgaris OXK US it was 3.13 µg/mL (≈ 6.01 µM); in data set [5] it was > 100 µg/mL. Further, the Hygroscopicity result in [6] is recorded as “Very hygroscopic”. Besides, the “Solubility in ethyl acetate, butyl acetate, n-butanol and other organic solvents” value in data set [6] (ethyl acetate, butyl acetate, n-butanol and other organic solvents) is reported as “scarcely soluble”. In addition, in data set [6] (methanol and ethanol), the “Solubility in methanol and ethanol” value is given as “slightly soluble”. Also, in data set [6], the Solubility in water result was “Easily soluble”.

In the case of `CO[C@@]1(NC(=O)CCCC(N)C(=O)O)C(=O)N2C(C(=O)O)=C(CSc3nnnn3C)CS[C@@H]21` (some centres unmarked) [Y-G19Z-G, 7(5-amino-5-carboxyvaleramido)-7-methoxy-3-(1-methyl-1H-tetrazol-5-yl)thimethyl-Δ^3cephem-4-carboxylic acid, reference compound], the “diameter of inhibitory circle” value came out at 21.6 with Proteus mirabilis (100 γ/ml), 27.0 with Proteus mirabilis (500 γ/ml), 18.5 in the data set with Salmonella gallinarum (100 γ/ml) and 21.5 in the data set with Salmonella gallinarum (500 γ/ml).

For `CO[C@@]1(NC(=O)CCCC(=O)O)C(=O)N2C(C(=O)O)=C(CSc3nnnn3C)CS[C@@H]21` [Y-G19Z-GG, 7(4-carboxybutyramido)-7-methoxy-3-(1-methyl-1H-tetrazol-5-yl)thio-methylΔ^3cephem-4-carboxylic acid, reference compound], the figures for the “diameter of inhibitory circle” value in the data set with Proteus mirabilis (500 γ/ml) and in the data set on Salmonella gallinarum (500 γ/ml) were 19.0 and 16.0, respectively.

The record behind these values is US4410626A, “Process for the production of 7α-methoxycephalosporin derivatives” (Yamanouchi Pharmaceutical Co. Ltd., priority 1978, dated 1983).
